Data reported in ChEMBL document CHEMBL1127941, “Norleucine as a replacement for methionine in phosphatase-resistant linear and cyclic peptides which bind to p85 SH2 domains” (Bioorg Med Chem Lett, 1994).
Numbered stars: 1 amine (or outer) side, 2 acyl side, 3 side chain; on linkers, the order of the positions; unused ones are H or OH. Square brackets hold non-standard residues; d marks the D form. Peptide text beside a SMILES is read from it. X2 = O=C([C@@H](Cc1ccc(C(F)(F)OP(=O)(O)O)cc1)N[*:1])[*:2]; X1 = O=C([C@H](Cc1ccc(C(F)(F)OP(=O)(O)O)cc1)N[*:1])[*:2]; Pmp = N[C@@H](Cc1ccc(CP(=O)(O)O)cc1)C(=O)O; pY = N[C@@H](Cc1ccc(OP(=O)(O)O)cc1)C(=O)O; Nle = CCCC[C@H](N)C(=O)O

Test: Binding affinity to Phosphatidylinositol 3-kinase C-terminal p85 SH2 domain

Row | ID50 | SMILES
1 | 15.6 µM | CCCC[C@@H]1NC(=O)[C@H]2CCCN2C(=O)[C@H](C(C)C)NC(=O)[C@@H](Cc2ccc(OP(=O)(O)O)cc2)NC(=O)CNC(=O)[C@@H](CC(C)C)NC1=O
2 | 5.2 µM | CSCC[C@@H]1NC(=O)[C@H]2CCCN2C(=O)[C@H](C(C)C)NC(=O)[C@@H](Cc2ccc(COP(=O)(O)O)cc2)NC(=O)CNC(=O)[C@@H](CC(C)C)NC1=O
3 | 1.01 µM | CSCC[C@@H]1NC(=O)[C@H]2CCCN2C(=O)[C@H](C(C)C)NC(=O)[C@@H](Cc2ccc(OP(=O)(O)O)cc2)NC(=O)CNC(=O)[C@@H](CC(C)C)NC1=O
4 | 0.98 µM | CSCC[C@H](NC(=O)[C@@H]1CCCN1C(=O)[C@@H](NC(=O)[C@H](Cc1ccc(CP(=O)(O)O)cc1)NC(=O)CN)C(C)C)C(=O)N[C@@H](CC(C)C)C(=O)O (H-G[Pmp]VPML-OH)
5 | 1.6 µM | CCCC[C@H](NC(=O)[C@@H]1CCCN1C(=O)[C@@H](NC(=O)[C@H](Cc1ccc(CP(=O)(O)O)cc1)NC(=O)CN)C(C)C)C(=O)N[C@@H](CC(C)C)C(=O)O (H-G[Pmp]VP[Nle]L-OH)
6 | 0.17 µM | CSCC[C@H](NC(=O)[C@@H]1CCCN1C(=O)[C@@H](NC(=O)[C@H](Cc1ccc(OP(=O)(O)O)cc1)NC(=O)CN)C(C)C)C(=O)N[C@@H](CC(C)C)C(=O)O (H-G[pY]VPML-OH)
7 | 2.24 µM | CSCC[C@@H]1NC(=O)[C@@H]2CCCN2C(=O)[C@H](C(C)C)NC(=O)[C@H](Cc2ccc(C(F)(F)OP(=O)(O)O)cc2)NC(=O)CNC(=O)[C@H](CC(C)C)NC1=O (cyclo(G[X1]VPML))
8 | 8.9 µM | CCCC[C@@H]1NC(=O)[C@@H]2CCCN2C(=O)[C@H](C(C)C)NC(=O)[C@H](Cc2ccc(C(F)(F)OP(=O)(O)O)cc2)NC(=O)CNC(=O)[C@H](CC(C)C)NC1=O (cyclo(G[X1]VP[Nle]L))
9 | 32.4 µM | CSCC[C@@H]1NC(=O)[C@@H]2CCCN2C(=O)[C@H](C(C)C)NC(=O)[C@@H](Cc2ccc(C(F)(F)OP(=O)(O)O)cc2)NC(=O)CNC(=O)[C@H](CC(C)C)NC1=O (cyclo(G[X2]VPML))
10 | 59.1 µM | CCCC[C@@H]1NC(=O)[C@@H]2CCCN2C(=O)[C@H](C(C)C)NC(=O)[C@@H](Cc2ccc(C(F)(F)OP(=O)(O)O)cc2)NC(=O)CNC(=O)[C@H](CC(C)C)NC1=O (cyclo(G[X2]VP[Nle]L))
11 | 109 µM | CCCC[C@H](NC(=O)[C@@H]1CCCN1C(=O)[C@@H](NC(=O)C(Cc1ccc(CP(=O)(O)O)cc1)NC(=O)CN)C(C)C)C(=O)N[C@@H](CC(C)C)C(=O)O (single isomer, unassigned)
12 | 29.4 µM | CSCC[C@H](NC(=O)[C@@H]1CCCN1C(=O)[C@@H](NC(=O)C(Cc1ccc(CP(=O)(O)O)cc1)NC(=O)CN)C(C)C)C(=O)N[C@@H](CC(C)C)C(=O)O (single isomer, unassigned)
